Assay results from patent US5656743A, “Oligonucleotide modulation of cell growth” (priority 1994, dated 1997).
“Also recorded” adds a separate entry of the source.

Assays:
[1] = system: HeLa S3 cells (human epithelioid cervix carcinoma); assay: Cell growth of HeLa cells by counting attached cells after oligonucleotide treatment; type: cell-based; details: for inhibition of cell growth (in words): oligonucleotide + 10 μg/ml DOTMA; for inhibition of cell growth (in words) / cell growth inhibitory effect: serum-free, 4 h; for cell growth inhibitory effect: HeLa cells (FIG. 1A), 0.1-0.5 μM oligonucleotide + 10 μg/ml DOTMA, ±SD; for log HeLa cell kill: 2 days after treatment, oligonucleotide complexed with DOTMA 4 h
[2] = system: human tumor cells (HeLa, LOX, SN12A1); type: cell-based; details: 0.1 and 1 μM oligonucleotide + 10 μg/ml DOTMA 4 h; for inhibition of the tumors (in words): FIG. 2 panels A-C
[3] = system: HeLa and LOX human tumor cell lines; assay: Nuclear aberrations, mitoses and cell growth in HeLa and LOX cells by light and fluorescence microscopy; type: cell-based; details: 0.2 or 0.4 μM + DOTMA 4 h
Protocol: HeLa and LOX human tumor cell lines were analyzed by light and fluorescence microscopy after 4 hours treatment with 0.2 or 0.4 μM antisense (SEQ ID NO: 9) or sense (SEQ ID NO: 16) oligonucleotide with DOTMA. […] Nucleolar unraveling and fragmentation and chromatin alterations were observed. In some LOX cells chromatin was condensed as in prophase arrest. In HeLa cells, chromatin was condensed and compacted. Decreased mitoses correlated with decreased ^3 H-thymidine incorporation. Cell growth decreased 70-80%.

[4] = type: in vitro ADME; details: after 24 hours in 10% serum-containing medium
Protocol: (§1) Phosphorothioate oligonucleotide SEQ ID NO: 9 was labeled with [γ^32 P]ATP by T4 polynucleotide kinass to analyze cellular uptake, efflux and stability in the presence or absence of DOTMA. […] 5-15 fold more of oligonucleotide SEQ ID NO: 9 was associated with the cells in the presence of DOTMA than in its absence. 60% of the oligonucleotide localized to the nuclei after 4 hours treatment in the presence of DOTMA, approximately 50% remained in the cells 20 hours post-treatment. The stability of phosphorothioate oligonucleotides was much greater than the phosphodiester oligonucleotides. Only 40% degradation of the phosphorothioate oligonucleotide was found after 24 hours in 10% serum-containing medium. More than 50% of the phosphodiester oligonucleotide was degraded within 1 hour. DOTMA enhanced the activity of antisense oligonucleotide phosphorothioate.

[5] = Cellular uptake, efflux and localization of 32P-labeled oligonucleotide; type: in vitro ADME
Protocol: as §1

[6] = system: HRCC-SN12A1 cells (human renal cell carcinoma); assay: Cell growth of HRCC-SN12A1 cells by counting attached cells after oligonucleotide treatment; type: cell-based
Protocol: HeLa S3 (ATCC CCL 2.2, human epithelioid cervix carcinoma) cells were subcultured in Dulbecco's modified Eagle Medium (D-MEM) (GIBCO BRL), supplemented with 10% fetal bovine serum (FBS) (GIBCO BRL) and 1% penicillin-streptomycin liquid (100 000 IU/ml penicillin G sodium, 10 mg/ml streptomycin sulfate in 0.85% saline) (GIBCO BRL). LOX (IMVI, human amelanotic melanoma) cells (provided by Dr. D. J. Dykes, Southern Research Institute, Birmingham, Ala.) were subcultured in RPMI 1640 medium (RPMI) (GIBCO BRL) supplemented with 10% FBS and 1% penicillin-streptomycin liquid. […] All cells were negative for mycoplasma infection as determined by a DNA stain (McGarrity, Methods in Enzymology: Cell Culture, Vol 63, p23 (Academic Press, San Diego; 1979); Freshney, Culture of Animal Cells: A Manual of Basic Techniques (Wiley-Liss, NY; 1987). […]
The effect of oligonucleotides on cell growth was determined by counting the attached cells in the 6-well plates through a phase contrast inverted microscope (Nikon Diaphot, 10×objective, 10×ocular, 4×magnification extender, total magnification: 400×). The attached cells on 10 randomly chosen fields were counted (10-200 cells/field) and the total cell number was calculated by multiplying the mean cell number by the correction factor (f6-well =6028, f24-well =1258, f10 cm dish =35,670). […]

[7] = system: LOX cells (human amelanotic melanoma); assay: Cell growth of LOX cells by counting attached cells after oligonucleotide treatment; type: cell-based
Protocol: HeLa S3 (ATCC CCL 2.2, human epithelioid cervix carcinoma) cells were subcultured in Dulbecco's modified Eagle Medium (D-MEM) (GIBCO BRL), supplemented with 10% fetal bovine serum (FBS) (GIBCO BRL) and 1% penicillin-streptomycin liquid (100 000 IU/ml penicillin G sodium, 10 mg/ml streptomycin sulfate in 0.85% saline) (GIBCO BRL). LOX (IMVI, human amelanotic melanoma) cells (provided by Dr. D. J. Dykes, Southern Research Institute, Birmingham, Ala.) were subcultured in RPMI 1640 medium (RPMI) (GIBCO BRL) supplemented with 10% FBS and 1% penicillin-streptomycin liquid. HRCC-SN12A1 (human renal cell carcinoma) cells (established from the ascitic cells of intrarenally transplanted HRCC-bearing nude mouse and provided by Dr. I. J. Fidler, M.D., Anderson Cancer Center, Houston, Tex.)(Naito, etal., 1986) were subcultured in Eagle minimum essential medium (MEM) (GIBCO BRL), supplemented with 10% FBS, vitamins, L-glutamine, sodium pyruvate, non-essential amino acids and 1% penicillin-streptomycin liquid. All cells were negative for mycoplasma infection as determined by a DNA stain (McGarrity, Methods in Enzymology: Cell Culture, Vol 63, p23 (Academic Press, San Diego; 1979); Freshney, Culture of Animal Cells: A Manual of Basic Techniques (Wiley-Liss, NY; 1987).
Twenty-four hours after plating (1×10^5 cells into 6-well cell culture dishes), the cells growing in monolayer were gently washed once with 5 ml serum-free D-MEM, RPMI and MEM medium for HeLa S3, LOX and HRCC-SN12A1 cells, respectively. Freshly prepared serum-free mediumcontaining 10 μg/ml cationic lipid (DOTMA); Chiang, et al., J. Biol. Chem., 266:18162 (1991); Bennett, et al., J. Liposome Research, in press (1992); were mixed with oligonucleotide and preincubated at 37° C. in a humidified incubator for 15 minutes to allow formation of an oligonucleotide-cationic lipid complex. The oligonucleotide concentrations were between 0.001 and 10 μM, but for the majority of the experiments for HeLa S3 cells 0.1 μM, for LOX cells 0.03-0.05-0.1 μM, and for HRCC cells 0.1 μM concentrations were used. […]
The effect of oligonucleotides on cell growth was determined by counting the attached cells in the 6-well plates through a phase contrast inverted microscope (Nikon Diaphot, 10×objective, 10×ocular, 4×magnification extender, total magnification: 400×). The attached cells on 10 randomly chosen fields were counted (10-200 cells/field) and the total cell number was calculated by multiplying the mean cell number by the correction factor (f6-well =6028, f24-well =1258, f10 cm dish =35,670). […] The dead floating cells (viability was determined by […]) were not counted. The cell number in each well was determined before treatment, immediately after treatment, and daily after treatment for 5-7 days. […]

human LOX ascites tumor = assay: Tumor growth inhibition, i.p. LOX ascites tumor in nude mice; type: in vivo; details: complexed with DOTMA
Protocol: Intraperitoneally (i.p.) transplanted, exponentially growing LOX ascites tumor cells were harvested from nude mice, washed and resuspended in serum-free RPMI medium. A total of 2×10^6 viable cells (determined by trypan blue exclusion) in 0.5 ml RPMI medium were injected i.p. into the homozygous mutant, HSd: Athymic Nude-nu male mice (Sambrook, et al., 1989). Treatment was started 1 day after the i.p. injection of tumor cells and the oligonucleotide in the presence of DOTMA was given i.p. on days 1, 3 and 5. Tumor growth was followed by daily inspection of the animals. The experiments were terminated when the ascite tumors were visible both in controls and treated animals, generally by day 14. All animal experimentation followed the guidelines of the Baylor College of Medicine and New York Academy of Sciences.
The tumor growth inhibitory effect of antisense oligonucleotide SEQ ID NO: 9 was studied on i.p. injected LOX tumor cells. […] No tumor growth inhibition or other toxic effects occurred after treatment with PBS alone or DOTMA in PBS (1-10 mg/kg bodyweight).

[8] = 32P-labeled phosphorothioate oligonucleotide
[9] = two days after treatment, DOTMA 4 h serum-free

Sequence: GTGGGAGGCC AAGGCGGGTG (sense GTGGGAGGCCAAGGCGGGTG; chemistry not given here) [SEQ ID NO: 16, reference compound]
- inhibition of cell growth (in words) ([1]; HeLa cells): No inhibitory effect

Sequence: CACCCGCCTT GGCCTCCCAG (antisense CACCCGCCTTGGCCTCCCAG; chemistry not given here) [SEQ ID NO: 14, p120 antisense oligonucleotide, 3' UTR]
- inhibition of cell growth (in words) ([1]; HeLa cells): inhibitory activity
- inhibition of the tumors (in words) [2]: marked inhibition

Sequence: TCCCAGTCCC ACCTCCCATC (antisense TCCCAGTCCCACCTCCCATC; chemistry not given here) [SEQ ID NO: 6, p120 antisense oligonucleotide, 3' UTR]
- cell growth inhibitory effect [1]: 70.7±24.8%

Sequence: CACGCCTCCC GACTCTGCCC (DNA CACGCCTCCCGACTCTGCCC; chemistry not given here) [SEQ ID NO: 15, reference compound]
- log HeLa cell kill ([1]; HeLa cells): 0.2 log

Sequence: CACCCGCCTT GGCCTCCCAC (antisense CACCCGCCTTGGCCTCCCAC; chemistry not given here) [SEQ ID NO: 9, p120 antisense oligonucleotide, 3' UTR]
- decrease of cell growth [3]: 70-80%
- decrease of mitotic cells ([3]; at 8 to 72 hours post-treatment): 70%
- decrease of mitotic cells ([3]; at 4 hours): 50%
- cell growth inhibitory effect [1]: 87.6±11.3%
- effect of repeated treatment ([1]; HeLa cells, 0.1 μM + DOTMA, two 4 h treatments on days 1 and 3): additive effects
- log HeLa cell kill ([1]; HeLa cells): 0.7 log
- inhibition of cell growth in complete medium ([1]; HeLa cells, DOTMA-mediated treatment in complete (10% FBS) medium, compared to serum-free (FIG. 1C)): very slight
- inhibition of cell growth (in words) ([1]; HeLa cells): most consistent and greatest inhibition of cell growth; also recorded: inhibitory activity
- IC50 ([1]; HeLa cells, oligonucleotide + DOTMA 4 h serum-free, two days after treatment (FIG. 4), read-out: IC50, inhibition of cell growth): 0.02 µM
- degradation [4]: 40%
- oligonucleotide associated with the cells, presence versus absence of DOTMA [5, 8]: 5-15 fold
- time of treatment to plateau of cellular uptake [5, 8]: 1 h
- oligonucleotide remaining in the cells ([5]; 20 hours post-treatment): approximately 50%
- oligonucleotide localized to the nuclei ([5]; after 4 hours treatment in the presence of DOTMA): 60%
- inhibition of the tumors (in words) [2]: marked inhibition
- log-cell kill ([2]; especially 3-4 days after treatment): 0.5 to 1.5 log
- maximum cytocidal effect (log cell kill) ([6]; 4 days after treatment): 1.3 log
- log cell kill [6, 9]: 0.7 log
- log cell kill, single treatment ([7]; 0.05 μM + DOTMA, one 4 h treatment day 1 after seeding): 1.4 log
- effect of repeated treatment ([7]; 0.05 μM + DOTMA, two 4 h treatments on days 1 and 3): killed most LOX cells and no recovery was found on day 8
- IC50 ([7]; oligonucleotide + DOTMA 4 h serum-free, two days after treatment (FIG. 4), read-out: IC50, inhibition of cell growth): 0.01 µM
- log cell kill [7, 9]: 1.2 log
- inhibition of cell growth in vivo (human LOX ascites tumor; 0.65 mg/kg bodyweight i.p. days 1, 3, 5): 80%
- inhibition of cell growth in vivo (human LOX ascites tumor; 6.5 mg/kg bodyweight i.p. days 1, 3, 5): 90%
- IC50, tumor growth inhibition in vivo (human LOX ascites tumor; i.p. days 1, 3, 5): 0.26 mg/kg bodyweight
